## CC1CCC(=O)C1=O (stereo unspecified)
In 1,2-dichloroethane, 278.15 K
  solubility (mole fraction): 0.0554
In 1,2-dichloroethane, 283.15 K
  solubility (mole fraction): 0.0773
In 1,2-dichloroethane, 288.15 K
  solubility (mole fraction): 0.0992
In 1,2-dichloroethane, 293.15 K
  solubility (mole fraction): 0.122
In 1,2-dichloroethane, 298.15 K
  solubility (mole fraction): 0.153
In 1,2-dichloroethane, 303.15 K
  solubility (mole fraction): 0.184
In 1,2-dichloroethane, 308.15 K
  solubility (mole fraction): 0.215
In 1,2-dichloroethane, 313.15 K
  solubility (mole fraction): 0.254
In acetone, 278.15 K
  solubility (mole fraction): 0.0937
In acetone, 283.15 K
  solubility (mole fraction): 0.105
In acetone, 288.15 K
  solubility (mole fraction): 0.133
In acetone, 293.15 K
  solubility (mole fraction): 0.152
In acetone, 298.15 K
  solubility (mole fraction): 0.182
In acetone, 303.15 K
  solubility (mole fraction): 0.221
In acetone, 308.15 K
  solubility (mole fraction): 0.255
In acetone, 313.15 K
  solubility (mole fraction): 0.298
In acetonitrile, 278.15 K
  solubility (mole fraction): 0.0331
In acetonitrile, 283.15 K
  solubility (mole fraction): 0.0519
In acetonitrile, 288.15 K
  solubility (mole fraction): 0.0657
In acetonitrile, 293.15 K
  solubility (mole fraction): 0.0823
In acetonitrile, 298.15 K
  solubility (mole fraction): 0.11
In acetonitrile, 303.15 K
  solubility (mole fraction): 0.139
In acetonitrile, 308.15 K
  solubility (mole fraction): 0.17
In acetonitrile, 313.15 K
  solubility (mole fraction): 0.204
In dichloromethane, 278.15 K
  solubility (mole fraction): 0.103
In dichloromethane, 283.15 K
  solubility (mole fraction): 0.123
In dichloromethane, 288.15 K
  solubility (mole fraction): 0.145
In dichloromethane, 293.15 K
  solubility (mole fraction): 0.18
In dichloromethane, 298.15 K
  solubility (mole fraction): 0.217
In dichloromethane, 303.15 K
  solubility (mole fraction): 0.251
In dichloromethane, 308.15 K
  solubility (mole fraction): 0.292
In dichloromethane, 313.15 K
  solubility (mole fraction): 0.333
In ethanol, 278.15 K
  solubility (mole fraction): 0.044
In ethanol, 283.15 K
  solubility (mole fraction): 0.0503
In ethanol, 288.15 K
  solubility (mole fraction): 0.0645
In ethanol, 293.15 K
  solubility (mole fraction): 0.0752
In ethanol, 298.15 K
  solubility (mole fraction): 0.0939
In ethanol, 303.15 K
  solubility (mole fraction): 0.111
In ethanol, 308.15 K
  solubility (mole fraction): 0.145
In ethanol, 313.15 K
  solubility (mole fraction): 0.187
In ethyl acetate, 278.15 K
  solubility (mole fraction): 0.0482
In ethyl acetate, 283.15 K
  solubility (mole fraction): 0.0574
In ethyl acetate, 288.15 K
  solubility (mole fraction): 0.0698
In ethyl acetate, 293.15 K
  solubility (mole fraction): 0.094
In ethyl acetate, 298.15 K
  solubility (mole fraction): 0.131
In ethyl acetate, 303.15 K
  solubility (mole fraction): 0.156
In ethyl acetate, 308.15 K
  solubility (mole fraction): 0.203
In ethyl acetate, 313.15 K
  solubility (mole fraction): 0.251
In ethyl formate, 278.15 K
  solubility (mole fraction): 0.0504
In ethyl formate, 283.15 K
  solubility (mole fraction): 0.0603
In ethyl formate, 288.15 K
  solubility (mole fraction): 0.0707
In ethyl formate, 293.15 K
  solubility (mole fraction): 0.0943
In ethyl formate, 298.15 K
  solubility (mole fraction): 0.12
In ethyl formate, 303.15 K
  solubility (mole fraction): 0.147
In ethyl formate, 308.15 K
  solubility (mole fraction): 0.176
In ethyl formate, 313.15 K
  solubility (mole fraction): 0.239
In isobutanol, 278.15 K
  solubility (mole fraction): 0.0394
In isobutanol, 283.15 K
  solubility (mole fraction): 0.0467
In isobutanol, 288.15 K
  solubility (mole fraction): 0.052
In isobutanol, 293.15 K
  solubility (mole fraction): 0.0701
In isobutanol, 298.15 K
  solubility (mole fraction): 0.0866
In isobutanol, 303.15 K
  solubility (mole fraction): 0.111
In isobutanol, 308.15 K
  solubility (mole fraction): 0.153
In isobutanol, 313.15 K
  solubility (mole fraction): 0.211
In isopropanol, 278.15 K
  solubility (mole fraction): 0.0198
In isopropanol, 283.15 K
  solubility (mole fraction): 0.0388
In isopropanol, 288.15 K
  solubility (mole fraction): 0.0599
In isopropanol, 293.15 K
  solubility (mole fraction): 0.0768
In isopropanol, 298.15 K
  solubility (mole fraction): 0.101
In isopropanol, 303.15 K
  solubility (mole fraction): 0.13
In isopropanol, 308.15 K
  solubility (mole fraction): 0.165
In isopropanol, 313.15 K
  solubility (mole fraction): 0.207
In methanol, 278.15 K
  solubility (mole fraction): 0.0488
In methanol, 283.15 K
  solubility (mole fraction): 0.0629
In methanol, 288.15 K
  solubility (mole fraction): 0.0787
In methanol, 293.15 K
  solubility (mole fraction): 0.0966
In methanol, 298.15 K
  solubility (mole fraction): 0.119
In methanol, 303.15 K
  solubility (mole fraction): 0.147
In methanol, 308.15 K
  solubility (mole fraction): 0.177
In methanol, 313.15 K
  solubility (mole fraction): 0.208
In n-butanol, 278.15 K
  solubility (mole fraction): 0.0353
In n-butanol, 283.15 K
  solubility (mole fraction): 0.0444
In n-butanol, 288.15 K
  solubility (mole fraction): 0.0552
In n-butanol, 293.15 K
  solubility (mole fraction): 0.0693
In n-butanol, 298.15 K
  solubility (mole fraction): 0.0858
In n-butanol, 303.15 K
  solubility (mole fraction): 0.105
In n-butanol, 308.15 K
  solubility (mole fraction): 0.133
In n-butanol, 313.15 K
  solubility (mole fraction): 0.18
In n-propanol, 278.15 K
  solubility (mole fraction): 0.0389
In n-propanol, 283.15 K
  solubility (mole fraction): 0.0474
In n-propanol, 288.15 K
  solubility (mole fraction): 0.0581
In n-propanol, 293.15 K
  solubility (mole fraction): 0.0731
In n-propanol, 298.15 K
  solubility (mole fraction): 0.0903
In n-propanol, 303.15 K
  solubility (mole fraction): 0.113
In n-propanol, 308.15 K
  solubility (mole fraction): 0.141
In n-propanol, 313.15 K
  solubility (mole fraction): 0.202

From BigSolDB 2.1
